{
  "source": "patent US9387221B2",
  "about": "“SDF-1 binding nucleic acids and the use thereof in cancer treatment” (NOXXON Pharma AG, priority 2010, dated 2016)",
  "assay_type_in_all_cases": "cell-based",
  "key": {"SDF-1 [1]": {"biological_target": "T1, SDF-1 (Homo sapiens, UniProt P48061)", "assay": "Inhibition of SDF-1-induced chemotaxis, U937 cells", "conditions": "3 nM human SDF-1", "method": "(§1) The human T cell leukemia cell line Jurkat, the human leukemic monocyte lymphoma cell line U937, the human pre-B cell leukemia cell line BV-173 and human pre-B ALL cell line Nalm-6 express CXCR4. […] All cells used were obtained from the DSMZ (Braunschweig). All cell lines were cultivated at 37° C. and 5% CO2 in RPMI 1640 medium with Glutamax (Invitrogen, Karlsruhe, Germany) which contains 10% fetal bovine serum, 100 units/ml penicillin and 100 μg/ml streptomycin (Invitrogen, Karlsruhe, Germany). One day before the experiment, cells were seeded in a new T175 flask with a density of 0.3×10^6/ml (Jurkat, U937, BV-173) or 0.75×10^6/ml (Nalm-6), respectively.\n(§2) For the experiment, cells were centrifuged (5 min at 300 g), resuspended, counted and washed once with 15 ml HBH (Hanks balanced salt solution containing 1 mg/ml bovine serum albumin and 20 mM HEPES; Invitrogen, Karlsruhe, Germany). Then the cells were resuspended at 1.33×10^6/ml (Jurkat, U937, BV-173) or 2.67×10^6/ml (Nalm-6), respectively. […]\n(§3) For evaluation, fluorescence values were corrected for background fluorescence (no cells in well). Then the difference between experimental conditions with and without SDF-1 was calculated. The value for the sample without Spiegelmer (SDF-1 only) was set 100% and the values for the samples with Spiegelmer were calculated as percent of this. […]"}, "SDF-1 [2]": {"biological_target": "T1, SDF-1", "assay": "Inhibition of SDF-1-induced chemotaxis, BV-173 cells", "conditions": "3 nM human SDF-1", "method": "as §1, §2, §3"}, "SDF-1 [3]": {"biological_target": "T1, SDF-1", "assay": "Inhibition of SDF-1-induced chemotaxis, Nalm-6 cells", "conditions": "0.3 nM human SDF-1", "method": "as §1, §2, §3"}, "SDF-1 [4]": {"biological_target": "T1, SDF-1", "assay": "SDF-1 dependent chemotaxis of primary chronic lymphocytic leukemia cells"}, "RPMI-8226 MM cells": {"test_system": "RPMI-8226 MM cells", "assay": "Chemosensitization coculture of RPMI-8226 MM cells with stromal MS-5 cells", "conditions": "100 nM NOX-A12, 1 μM F-ara-A, 40 hours", "method": "In order to mimic the in vivo interaction of the BM microenvironment with leukemia cells, an in vitro coculture system with murine BM stromal MS-5 cells and the multiple myeloma (abbr. MM) cell line RPMI 8226 was established. Aim of the experiment was to show whether SDF-1 binding […] NOX-A12 sensitizes MM cells in coculture with stromal cells to effects of chemotherapeutic agents. Stromal MS-5 cells secreting SDF 1 were incubated with SDF-1 binding […] NOX-A12 or the non-functional revNOX-A12. The MM cell line RPMI-8226 was added to the confluent stromal cell layer. The cells were then incubated with the chemotherapeutic agent F ara A (Fludarabine) for 40 hours. Cell Viability viability was measured. The murine stromal cell line MS-5 (ACC 441) was purchased from the DSMZ, the Multiple Myeloma cell line RPMI8226 (CCL-155) was purchased from the ATCC. The Multiple Myeloma cell line RPMI8226 was maintained in RPMI medium 1640 GlutaMAX (Invitrogen) supplemented with 10% FBS (Biochrom) and penicillin-streptomycin, the MS-5 cells were cultured in MEM alpha GlutaMAX (Invitrogen) with 10% FBS and penicillin-streptomycin. […] Cell viability and cell number were determined by Flow Cytometry using the Guava EasyCyte 6HT/2L (Millipore)."}},
  "note": "{PEG40k} = 40 kDa polyethylene glycol",
  "data": [
    {"substance": "5′-40 kDa-PEG-GCGUGGUGUGAUCUAGAUGUAUUGGCUGAUCCUAGUCAGGUACGC (5' {PEG40k}, sugars by position and backbone not given here) [NOX-A12]", "values": [
      {"measurement": "inhibition of SDF-1 induced chemotaxis", "setting": "SDF-1 [1]", "value": "Inhibition"},
      {"measurement": "inhibition of SDF-1 induced chemotaxis", "setting": "SDF-1 [2]", "value": "Inhibition"},
      {"measurement": "inhibition of SDF-1 induced chemotaxis", "setting": "SDF-1 [3]", "value": "Inhibition"},
      {"measurement": "block of SDF-1 dependent chemotaxis", "setting": "SDF-1 [4]", "value": "effectively blocked"},
      {"measurement": "cell viability of RPMI-8226 cells cocultured with stromal MS-5 cells", "setting": "RPMI-8226 MM cells", "value": "only slightly affected"}
    ]}
  ]
}
